Data reported in article PMC6270165, “Synthesis and Biological Evaluation of 3-Benzisoxazolyl-4-indolylmaleimides as Potent, Selective Inhibitors of Glycogen Synthase Kinase-3β” (Molecules, 2013).

Columns and labels:
Type in all cases: biochemical
GSK-3β = target: T1, GSK-3β (Homo sapiens, UniProt P49841); experiment: GSK-3β kinase assay (Z'-LYTE Kinase Assay kit Ser/Thr 9 Peptide); details: for IC50: 50 nM enzyme, 30 μM ATP, 2 μM substrate peptide, triplicate, mean ± SE, read-out: GSK-3β inhibitory activity IC50 (nM) ± SE; for Selectivity for GSK-3β over other tested kinases: versus PKC-epsilon, JAK2, BRAF, IKK2 and Drak2
T1 construct: GST (N, cleaved yes); made in house; host or cells: Escherichia coli BL21-Codon Plus (DE3)
T1 sequence (P49841 whole entry): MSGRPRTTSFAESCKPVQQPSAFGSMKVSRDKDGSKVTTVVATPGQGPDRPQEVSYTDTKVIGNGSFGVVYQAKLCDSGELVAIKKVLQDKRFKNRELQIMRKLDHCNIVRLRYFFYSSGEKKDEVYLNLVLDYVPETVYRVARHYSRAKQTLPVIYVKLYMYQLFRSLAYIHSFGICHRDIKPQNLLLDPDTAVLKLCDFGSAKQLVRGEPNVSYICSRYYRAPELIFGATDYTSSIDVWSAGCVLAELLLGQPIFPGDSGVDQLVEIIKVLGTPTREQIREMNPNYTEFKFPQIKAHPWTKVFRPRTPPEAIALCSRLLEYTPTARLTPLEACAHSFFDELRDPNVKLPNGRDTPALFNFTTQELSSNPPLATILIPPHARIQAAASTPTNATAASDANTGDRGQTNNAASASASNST
Experimental: (§1) GSK3β belongs to CMGC family. Here, the other family members were used to evaluate the selectivity of GSK3β inhibitors, including PKC-epsilon (AGC family), JAK2 (TK family), Braf (TKL family), DRAK2 (CAMK family) and IKKβ (other family).The recombinant GST-GSK-3βprotein was expressed in Escherichia coli strain BL21-Codon Plus (DE3), purified by GSTrap affinity chromatography, and cleaved by thrombin. The GSK-3β kinase assay was carried out with the Z´-LYTETM Kinase Assay kit Ser/Thr 9 Peptide substrate (Invitrogen, Grand, NY, USA) in 10 μL reaction volume containing 50 nM enzyme, 30 μM ATP and 2 μM substrate peptide. Drak2 Proteins were presented by professor Jiang-ping Wu (Laboratory of Immunology, Research Centre, CHUM, Notre Dame Hospital, Pavilion DeSève). The Drak2 kinase reaction was performed in a final assay volume of 3.4 μL using the ADP-GLO Kinase Assay Kit (Promega, Madison, WI, USA), according the ADP-GLO protocol and read on an EnVision plate reader. The recombinant PKC-epsilon, IKKβ, and JAK2 with N-terminal His-tag were expressed using baculovirus expression system and purified with Ni-Beads. BRAF protein was from Carna Biosciences, Inc. (Kobe Port Island, Japan). And the related kinase reactions were performed in a final assay volume of 10 μL using the related HTRF Assay Kit (Cisbio, Codolet, France). Reactions were according the HTRF protocol and read on an EnVision plate reader. All reactions were carried out in triplicate. […] Data were expressed as mean ± SE.

PKC-epsilon = target: T2, PKC-epsilon (Homo sapiens, UniProt Q02156); experiment: PKC-epsilon kinase assay (HTRF); details: read-out: PKC-epsilon inhibition% at 0.8 μg/mL (~2 μM)
T2 construct: His-tag (N); made in house
T2 sequence (Q02156 1-737): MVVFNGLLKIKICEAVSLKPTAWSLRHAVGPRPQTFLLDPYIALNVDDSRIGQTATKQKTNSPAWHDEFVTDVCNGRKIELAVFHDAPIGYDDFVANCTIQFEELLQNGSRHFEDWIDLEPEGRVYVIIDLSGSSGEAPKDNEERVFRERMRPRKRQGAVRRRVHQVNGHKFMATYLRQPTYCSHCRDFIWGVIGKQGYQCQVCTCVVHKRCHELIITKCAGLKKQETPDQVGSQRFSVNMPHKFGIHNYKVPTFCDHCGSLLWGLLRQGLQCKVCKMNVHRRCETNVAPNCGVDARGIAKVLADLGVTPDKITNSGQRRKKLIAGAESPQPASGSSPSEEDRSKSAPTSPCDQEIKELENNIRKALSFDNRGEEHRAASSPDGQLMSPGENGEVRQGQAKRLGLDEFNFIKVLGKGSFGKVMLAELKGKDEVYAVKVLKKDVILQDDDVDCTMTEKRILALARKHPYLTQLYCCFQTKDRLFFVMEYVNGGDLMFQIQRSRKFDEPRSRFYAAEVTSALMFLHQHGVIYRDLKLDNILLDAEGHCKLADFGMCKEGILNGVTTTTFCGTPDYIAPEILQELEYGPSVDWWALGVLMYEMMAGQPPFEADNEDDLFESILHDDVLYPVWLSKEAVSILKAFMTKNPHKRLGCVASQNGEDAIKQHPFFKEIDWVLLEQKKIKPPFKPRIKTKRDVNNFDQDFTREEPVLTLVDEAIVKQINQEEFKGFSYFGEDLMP
Experimental: as §1

JAK2 = target: T3, JAK2 (Homo sapiens, UniProt O60674); experiment: JAK2 kinase assay (HTRF); details: read-out: JAK2 inhibition% at 0.8 μg/mL (~2 μM)
T3 construct: His-tag (N); made in house
T3 sequence (O60674 whole entry): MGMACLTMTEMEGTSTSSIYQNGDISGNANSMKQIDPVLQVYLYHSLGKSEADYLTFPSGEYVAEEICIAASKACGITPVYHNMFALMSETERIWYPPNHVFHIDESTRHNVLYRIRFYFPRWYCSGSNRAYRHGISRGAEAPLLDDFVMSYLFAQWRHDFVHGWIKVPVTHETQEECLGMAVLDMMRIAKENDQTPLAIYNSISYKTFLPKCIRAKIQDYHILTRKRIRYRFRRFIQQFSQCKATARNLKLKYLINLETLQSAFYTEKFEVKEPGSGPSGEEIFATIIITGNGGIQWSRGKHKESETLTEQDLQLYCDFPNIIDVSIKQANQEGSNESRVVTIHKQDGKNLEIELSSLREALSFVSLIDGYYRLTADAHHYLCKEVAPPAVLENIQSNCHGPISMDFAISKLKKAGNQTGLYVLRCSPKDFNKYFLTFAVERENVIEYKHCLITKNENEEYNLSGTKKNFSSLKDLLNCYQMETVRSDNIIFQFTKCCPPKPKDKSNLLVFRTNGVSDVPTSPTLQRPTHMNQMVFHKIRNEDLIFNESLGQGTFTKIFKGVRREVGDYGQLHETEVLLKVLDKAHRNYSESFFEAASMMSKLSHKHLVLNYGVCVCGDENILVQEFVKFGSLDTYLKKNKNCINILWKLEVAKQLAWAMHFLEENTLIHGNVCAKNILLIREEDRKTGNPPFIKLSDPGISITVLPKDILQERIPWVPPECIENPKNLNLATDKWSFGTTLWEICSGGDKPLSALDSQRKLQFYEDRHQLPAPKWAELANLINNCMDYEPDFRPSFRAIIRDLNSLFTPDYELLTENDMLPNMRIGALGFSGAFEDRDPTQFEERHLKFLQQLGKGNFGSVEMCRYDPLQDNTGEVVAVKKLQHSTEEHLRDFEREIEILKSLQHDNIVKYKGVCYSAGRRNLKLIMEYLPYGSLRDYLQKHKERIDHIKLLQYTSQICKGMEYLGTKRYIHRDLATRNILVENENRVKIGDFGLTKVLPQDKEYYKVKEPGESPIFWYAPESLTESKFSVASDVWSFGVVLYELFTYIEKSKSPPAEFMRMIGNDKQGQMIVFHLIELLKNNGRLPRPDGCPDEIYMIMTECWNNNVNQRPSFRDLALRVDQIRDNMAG
Experimental: as §1

BRAF = target: T4, BRAF (Homo sapiens, UniProt P15056); experiment: BRAF kinase assay (HTRF); details: read-out: BRAF inhibition% at 0.8 μg/mL (~2 μM)
T4 construct: purchased Carna Biosciences, Inc
T4 sequence (P15056 whole entry): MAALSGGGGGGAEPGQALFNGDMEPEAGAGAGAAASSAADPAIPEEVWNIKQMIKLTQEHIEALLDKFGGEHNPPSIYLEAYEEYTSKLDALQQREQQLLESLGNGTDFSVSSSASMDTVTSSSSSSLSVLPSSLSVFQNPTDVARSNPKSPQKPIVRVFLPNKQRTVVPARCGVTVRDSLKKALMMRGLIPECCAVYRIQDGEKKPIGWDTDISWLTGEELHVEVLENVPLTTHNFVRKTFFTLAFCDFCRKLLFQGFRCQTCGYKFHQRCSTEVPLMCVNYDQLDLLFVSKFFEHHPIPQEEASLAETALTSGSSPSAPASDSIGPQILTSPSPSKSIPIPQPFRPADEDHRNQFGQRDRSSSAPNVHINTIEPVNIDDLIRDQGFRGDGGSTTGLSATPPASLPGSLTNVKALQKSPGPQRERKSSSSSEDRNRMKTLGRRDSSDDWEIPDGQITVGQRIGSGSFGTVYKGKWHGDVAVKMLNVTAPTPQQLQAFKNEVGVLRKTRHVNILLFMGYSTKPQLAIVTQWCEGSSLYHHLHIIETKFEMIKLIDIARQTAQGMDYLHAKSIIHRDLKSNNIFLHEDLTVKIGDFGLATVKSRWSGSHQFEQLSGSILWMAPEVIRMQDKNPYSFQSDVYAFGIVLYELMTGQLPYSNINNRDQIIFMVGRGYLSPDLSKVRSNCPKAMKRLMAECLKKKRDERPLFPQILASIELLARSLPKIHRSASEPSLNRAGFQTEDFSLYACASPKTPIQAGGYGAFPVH
Experimental: as §1

IKK2 = target: T5, IKK2 (Homo sapiens, UniProt O14920); experiment: IKK2 (IKKβ) kinase assay (HTRF); details: read-out: IKK2 inhibition% at 0.8 μg/mL (~2 μM)
T5 construct: His-tag (N); made in house
T5 sequence (O14920 1-756): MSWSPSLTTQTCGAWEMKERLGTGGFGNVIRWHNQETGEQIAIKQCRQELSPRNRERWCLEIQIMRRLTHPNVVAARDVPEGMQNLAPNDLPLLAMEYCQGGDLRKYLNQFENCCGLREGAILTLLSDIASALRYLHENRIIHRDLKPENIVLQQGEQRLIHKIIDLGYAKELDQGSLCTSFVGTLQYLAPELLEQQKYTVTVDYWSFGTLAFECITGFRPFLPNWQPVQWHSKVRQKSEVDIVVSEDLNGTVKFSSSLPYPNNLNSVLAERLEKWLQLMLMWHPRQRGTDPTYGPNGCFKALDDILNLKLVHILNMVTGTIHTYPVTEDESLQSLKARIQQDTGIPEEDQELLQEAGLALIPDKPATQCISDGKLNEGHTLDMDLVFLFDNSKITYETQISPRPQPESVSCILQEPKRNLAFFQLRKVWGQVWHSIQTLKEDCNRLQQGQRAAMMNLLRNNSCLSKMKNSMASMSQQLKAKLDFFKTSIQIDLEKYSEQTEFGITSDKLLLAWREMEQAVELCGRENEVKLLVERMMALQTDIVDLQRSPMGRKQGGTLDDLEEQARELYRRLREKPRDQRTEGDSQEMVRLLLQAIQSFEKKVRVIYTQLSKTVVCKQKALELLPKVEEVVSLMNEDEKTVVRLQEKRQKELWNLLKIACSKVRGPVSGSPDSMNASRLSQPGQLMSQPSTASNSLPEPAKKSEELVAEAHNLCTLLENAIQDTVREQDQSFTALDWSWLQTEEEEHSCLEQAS
Experimental: as §1

Drak2 = target: T6, Drak2 (Homo sapiens, UniProt O94768); experiment: Drak2 kinase assay (ADP-GLO); details: read-out: Drak2 inhibition% at 0.8 μg/mL (~2 μM)
T6 sequence (O94768 1-372): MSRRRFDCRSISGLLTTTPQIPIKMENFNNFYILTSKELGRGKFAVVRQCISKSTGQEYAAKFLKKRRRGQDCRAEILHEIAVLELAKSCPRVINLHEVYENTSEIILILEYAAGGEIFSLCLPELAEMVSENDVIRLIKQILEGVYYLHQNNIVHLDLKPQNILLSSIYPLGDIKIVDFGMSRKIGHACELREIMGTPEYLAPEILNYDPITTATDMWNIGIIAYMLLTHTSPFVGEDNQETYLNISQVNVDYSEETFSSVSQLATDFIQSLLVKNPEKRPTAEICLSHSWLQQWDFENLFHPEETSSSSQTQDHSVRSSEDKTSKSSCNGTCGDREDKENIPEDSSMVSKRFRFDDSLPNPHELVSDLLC
Experimental: as §1

SMILES | IC50 (GSK-3β) [nM] | other results
O=C1NC(=O)C(c2noc3ccccc23)=C1c1c[nH]c2ccccc12 [7a, 3-(Benzo[d]isoxazol-3-yl)-4-(1H-indol-3-yl)-1H-pyrrole-2,5-dione] | 332 ± 25.7 | –
COc1ccc2c(c1)c(C1=C(c3noc4ccccc34)C(=O)NC1=O)cn2CCCN1CCOCC1 [7b, 3-(Benzo[d]isoxazol-3-yl)-4-(5-methoxy-1-(3-morpholinopropyl)-1H-indol-3-yl)-1H-pyrrole-2,5-dione] | 357 ± 17.1 | –
O=C1NC(=O)C(c2cn(CCCN3CCOCC3)c3cc(Br)ccc23)=C1c1noc2ccccc12 [7d, 3-(Benzo[d]isoxazol-3-yl)-4-(6-bromo-1-(3-morpholinopropyl)-1H-indol-3-yl)-1H-pyrrole-2,5-dione] | 210 ± 8.9 | –
O=C1NC(=O)C(c2cn(CCCN3CCOCC3)c3cc(Cl)ccc23)=C1c1noc2ccccc12 [7e, 3-(Benzo[d]isoxazol-3-yl)-4-(6-chloro-1-(3-morpholinopropyl)-1H-indol-3-yl)-1H-pyrrole-2,5-dione] | 510 ± 20.1 | –
O=C1NC(=O)C(c2cn(CCN3CCOCC3)c3ccccc23)=C1c1noc2ccccc12 [7g, 3-(Benzo[d]isoxazol-3-yl)-4-(1-(2-morpholinoethyl)-1H-indol-3-yl)-1H-pyrrole-2,5-dione] | 615.6 ± 6.1 | –
O=C1NC(=O)C(c2cn(CCCN3CCOCC3)c3ccccc23)=C1c1noc2ccccc12 [7h, 3-(Benzo[d]isoxazol-3-yl)-4-(1-(3-morpholinopropyl)-1H-indol-3-yl)-1H-pyrrole-2,5-dione] | 138 ± 6 | –
O=C1NC(=O)C(c2cn(CCCCN3CCOCC3)c3ccccc23)=C1c1noc2ccccc12 [7i, 3-(Benzo[d]isoxazol-3-yl)-4-(1-(4-morpholinobutyl)-1H-indol-3-yl)-1H-pyrrole-2,5-dione] | 411 ± 8.2 | –

More lines, main results first:

IC50 (GSK-3β) [nM] | SMILES | other results
0.73 ± 0.02 | O=C1NC(=O)C(c2cn(CCCn3ccnc3)c3ccccc23)=C1c1noc2ccccc12 [7j, 3-(1-(3-(1H-Imidazol-1-yl)propyl)-1H-indol-3-yl)-4-(benzo[d]isoxazol-3-yl)-1H-pyrrole-2,5-dione] | GSK-3β inhibitory potency, fold more potent than compound 7a (GSK-3β; ratio of IC50 values, versus 7a): about 460 fold; Selectivity for GSK-3β over other tested kinases (GSK-3β): high selectivity; inhibition at 2 µM (PKC-epsilon): 10.9%; inhibition at 2 µM (JAK2): 4.9%; inhibition at 2 µM (BRAF): 0.8%; inhibition at 2 µM (IKK2): 3.5%; inhibition at 2 µM (Drak2): 4.47%
89.8 ± 4.5 | O=C1NC(=O)C(c2cn(CCCCn3ccnc3)c3ccccc23)=C1c1noc2ccccc12 [7k, 3-(1-(4-(1H-Imidazol-1-yl)butyl)-1H-indol-3-yl)-4-(benzo[d]isoxazol-3-yl)-1H-pyrrole-2,5-dione] | –
20.9 ± 5.1 | O=C1NC(=O)C(c2cn(CCCn3cncn3)c3ccccc23)=C1c1noc2ccccc12 [7l, 3-(1-(3-(1H-1,2,4-Triazol-1-yl)propyl)-1H-indol-3-yl)-4-(benzo[d]isoxazol-3-yl)-1H-pyrrole-2,5-dione] | –
512 ± 15.6 | O=C1NC(=O)C(c2cn(CCCN3CCCCC3)c3ccccc23)=C1c1noc2ccccc12 [7m, 3-(Benzo[d]isoxazol-3-yl)-4-(1-(3-(piperidin-1-yl)propyl)-1H-indol-3-yl)-1H-pyrrole-2,5-dione] | –
659 ± 15.7 | O=C1NC(=O)C(c2cn(CCCN3CCCC3)c3ccccc23)=C1c1noc2ccccc12 [7n, 3-(Benzo[d]isoxazol-3-yl)-4-(1-(3-(pyrrolidin-1-yl)propyl)-1H-indol-3-yl)-1H-pyrrole-2,5-dione] | –
22.1 ± 1.5 | Cn1cc(C2=C(c3noc4ccccc34)C(=O)NC2=O)c2ccccc21 [7o, 3-(Benzo[d]isoxazol-3-yl)-4-(1-methyl-1H-indol-3-yl)-1H-pyrrole-2,5-dione] | Selectivity for GSK-3β over other tested kinases (GSK-3β): high selectivity; inhibition at 2 µM (PKC-epsilon): 21.2%; inhibition at 2 µM (JAK2): 9.4%; inhibition at 2 µM (BRAF): 1.1%; inhibition at 2 µM (IKK2): 2.9%; inhibition at 2 µM (Drak2): 13.8%
58.7 ± 2.8 | CCCCn1cc(C2=C(c3noc4ccccc34)C(=O)NC2=O)c2ccccc21 [7p, 3-(Benzo[d]isoxazol-3-yl)-4-(1-butyl-1H-indol-3-yl)-1H-pyrrole-2,5-dione] | –
38.9 ± 2.6 | O=C1NC(=O)C(c2cn(CCCO)c3ccccc23)=C1c1noc2ccccc12 [7q, 3-(Benzo[d]isoxazol-3-yl)-4-(1-(3-hydroxypropyl)-1H-indol-3-yl)-1H-pyrrole-2,5-dione] | –
